{"source": "patent US10214519B2", "about": "“Phosphatidylinositol 3-kinase inhibitors” (Gilead Sciences, Inc., priority 2016, dated 2019)"}
{"target": "PI3Kβ (Homo sapiens (Human), UniProt P42338)", "sequence (P42338 whole entry, the tested form may be a part, canonical isoform)": "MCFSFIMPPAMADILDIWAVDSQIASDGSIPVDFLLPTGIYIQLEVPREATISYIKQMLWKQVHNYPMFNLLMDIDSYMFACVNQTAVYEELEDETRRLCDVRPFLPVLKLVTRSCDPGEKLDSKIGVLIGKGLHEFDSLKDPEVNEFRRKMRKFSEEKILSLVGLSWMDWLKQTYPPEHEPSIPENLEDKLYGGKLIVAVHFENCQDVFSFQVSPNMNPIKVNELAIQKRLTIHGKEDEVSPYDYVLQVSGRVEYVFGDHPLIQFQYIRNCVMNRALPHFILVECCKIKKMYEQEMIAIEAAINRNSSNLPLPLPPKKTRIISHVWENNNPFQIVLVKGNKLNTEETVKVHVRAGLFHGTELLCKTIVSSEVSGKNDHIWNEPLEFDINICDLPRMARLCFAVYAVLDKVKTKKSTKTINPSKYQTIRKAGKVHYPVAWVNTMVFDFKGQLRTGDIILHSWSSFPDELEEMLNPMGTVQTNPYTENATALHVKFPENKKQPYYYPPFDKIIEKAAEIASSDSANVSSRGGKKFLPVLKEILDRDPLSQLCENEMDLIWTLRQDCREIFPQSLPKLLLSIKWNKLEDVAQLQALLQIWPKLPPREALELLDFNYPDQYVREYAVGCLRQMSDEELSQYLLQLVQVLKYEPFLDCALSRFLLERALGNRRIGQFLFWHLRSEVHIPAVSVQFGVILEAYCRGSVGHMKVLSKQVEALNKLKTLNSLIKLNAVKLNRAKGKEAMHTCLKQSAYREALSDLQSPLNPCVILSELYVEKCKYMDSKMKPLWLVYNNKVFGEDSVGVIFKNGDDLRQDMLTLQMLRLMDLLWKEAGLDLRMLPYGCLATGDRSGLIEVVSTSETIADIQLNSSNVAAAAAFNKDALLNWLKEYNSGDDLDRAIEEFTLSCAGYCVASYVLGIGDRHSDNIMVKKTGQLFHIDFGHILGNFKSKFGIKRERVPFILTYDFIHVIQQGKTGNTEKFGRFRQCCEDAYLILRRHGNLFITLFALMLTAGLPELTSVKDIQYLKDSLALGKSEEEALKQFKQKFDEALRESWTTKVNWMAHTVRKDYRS", "sequence (P27986 whole entry partner, the tested form may be a part, canonical isoform)": "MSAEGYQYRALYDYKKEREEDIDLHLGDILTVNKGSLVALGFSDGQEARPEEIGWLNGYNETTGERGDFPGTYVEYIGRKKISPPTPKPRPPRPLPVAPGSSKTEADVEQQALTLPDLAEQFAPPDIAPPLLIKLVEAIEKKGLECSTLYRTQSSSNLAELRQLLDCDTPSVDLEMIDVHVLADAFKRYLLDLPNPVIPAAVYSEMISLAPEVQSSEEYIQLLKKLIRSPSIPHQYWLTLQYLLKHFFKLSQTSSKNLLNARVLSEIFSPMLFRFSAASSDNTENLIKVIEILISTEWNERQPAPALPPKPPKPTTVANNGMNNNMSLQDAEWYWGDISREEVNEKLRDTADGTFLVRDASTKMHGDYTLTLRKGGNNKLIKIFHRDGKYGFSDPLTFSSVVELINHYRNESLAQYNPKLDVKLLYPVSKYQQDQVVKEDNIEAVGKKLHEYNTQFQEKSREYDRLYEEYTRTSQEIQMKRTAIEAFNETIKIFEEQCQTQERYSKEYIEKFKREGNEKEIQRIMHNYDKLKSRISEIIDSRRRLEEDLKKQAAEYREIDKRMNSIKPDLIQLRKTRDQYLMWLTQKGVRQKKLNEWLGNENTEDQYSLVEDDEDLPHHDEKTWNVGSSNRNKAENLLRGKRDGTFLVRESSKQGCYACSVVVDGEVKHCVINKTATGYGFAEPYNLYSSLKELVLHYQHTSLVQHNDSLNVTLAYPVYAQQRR", "experiment": "PI3K isoform TR-FRET enzymatic assay (PI3Kβ)", "format": "biochemical", "conditions": "2× Km ATP, 30 minutes at 25° C.", "outline": "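Heterodimeric recombinant PI3Kβ was incubated with compound 30 minutes at 25° C. Product was detected by TR-FRET competition with 10 nM labeled PIP3 for 35 nM Eu-GRP-1 PH domain after EDTA stop. Data were normalized to 1 μM wortmannin and DMSO, and IC50 was taken from a four-parameter fit.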", "units": {"IC50": "nM"}}
{"smiles": "Clc1cccc2c(-n3c(CC4CC4)nc4c(-c5ncco5)cc(N5CCOCC5)cc43)ccnc12", "note": "[Example 220, 4-[3-(8-chloroquinolin-4-yl)-2-(cyclopropylmethyl)-7-(1,3-oxazol-2-yl)benzimidazol-5-yl]morpholine]", "IC50": 7}
{"smiles": "Fc1ccc(F)c2c(-n3c(CC4CC4)nc4c(-c5ncco5)cc(N5CCOCC5)cc43)ccnc12", "note": "[Example 221, 4-[2-(cyclopropylmethyl)-3-(5,8-difluoroquinolin-4-yl)-7-(1,3-oxazol-2-yl)benzimidazol-5-yl]morpholine]", "IC50": 11}
{"smiles": "CCCc1nc2c(-c3ncco3)cc(N3CCOCC3)cc2n1-c1ccnc2c(Cl)cc(F)cc12", "note": "[Example 222, 4-[3-(8-chloro-6-fluoroquinolin-4-yl)-7-(1,3-oxazol-2-yl)-2-propylbenzimidazol-5-yl]morpholine]", "IC50": 12}
{"smiles": "CCCc1nc2c(-c3ncco3)cc(N3CCOCC3)cc2n1-c1ccnc2c(F)cccc12", "note": "[Example 223, 4-[3-(8-fluoroquinolin4-yl)-7-(1,3-oxazol-2-yl)-2-propylbenzimidazol-5-yl]morpholine]", "IC50": 9}
{"smiles": "Clc1cccc2c(-n3cnc4c(-c5ncco5)cc(N5CCOCC5)cc43)ccnc12", "note": "[Example 224, 4-[3-(8-chloroquinolin-4-yl)-7-(1,3-oxazol-2-yl)benzimidazol-5-yl]morpholine]", "IC50": 3}
{"smiles": "Fc1cccc2c(-n3c(CC4CC4)nc4c(-c5ncco5)cc(N5CCOCC5)cc43)ccnc12", "note": "[Example 225, 4-[2-(cyclopropylmethyl)-3-(8-fluoroquinolin-4-yl)-7-(1,3-oxazol-2-yl)benzimidazol-5-yl]morpholine]", "IC50": 18}
{"smiles": "CCc1nc2c(-c3ncco3)cc(N3CCOCC3)cc2n1-c1ccnc2c(Cl)cccc12", "note": "[Example 226, 4-[3-(8-chloroquinolin4-yl)-2-ethyl-7-(1,3-oxazol-2-yl)benzimidazol-5-yl]morpholine]", "IC50": 5}
{"smiles": "CCCc1nc2c(-c3ncco3)cc(N3CCOCC3)cc2n1-c1ccnc2c(Cl)cccc12", "note": "[Example 227, 4-[3-(8-chloroquinolin-4-yl)-7-(1,3-oxazol-2-yl)-2-propylbenzimidazol-5-yl]morpholine]", "IC50": 10}
{"smiles": "Clc1cccc2c(-n3c(C4CC4)nc4c(-c5ncco5)cc(N5CCOCC5)cc43)ccnc12", "note": "[Example 228, 4-[3-(8-chloroquinolin-4-yl)-2-cyclopropyl-7-(1,3-oxazol-2-yl)benzimidazol-5-yl]morpholine]", "IC50": 10}
{"smiles": "Cc1nc2c(-c3ncco3)cc(N3CCOCC3)cc2n1-c1ccnc2c(F)ccc(F)c12", "note": "[Example 229, 4-[3-(5,8-difluoroquinolin-4-yl)-2-methyl-7-(1,3-oxazol-2-yl)benzimidazol-5-yl]morpholine]", "IC50": 5}
{"smiles": "CCCc1nc2c(-c3ncco3)cc(N3CCOCC3)cc2n1-c1ccnc2c(F)ccc(F)c12", "note": "[Example 230, 4-(1-(5,8-difluoroquinolin-4-yl)-4-(oxazol-2-yl)-2-propyl-1H-benzo[d]imidazol-6-yl)morpholine]", "IC50": 7}
{"smiles": "Fc1ccc(F)c2c(-n3c(C4CC4)nc4c(-c5ncco5)cc(N5CCOCC5)cc43)ccnc12", "note": "[Example 231, 4-[2-cyclopropyl-3-(5,8-difluoroquinolin-4-yl)-7-(1,3-oxazol-2-yl)benzimidazol-5-yl]morpholine]", "IC50": 16}
{"smiles": "CCc1nc2c(-c3nc(C)cs3)cc(N3CCOCC3)cc2n1-c1ccnc2c(F)cccc12", "note": "[Example 232, 4-[2-ethyl-3-(8-fluoroquinolin-4-yl)-7-(4-methyl-1,3-thiazol-2-yl)benzimidazol-5-yl]morpholine]", "IC50": 56}
{"smiles": "Cc1csc(-c2cc(N3CCOCC3)cc3c2nc(C)n3-c2ccnc3c(F)ccc(F)c23)n1", "note": "[Example 233, 4-[3-(5,8-difluoroquinolin-4-yl)-2-methyl-7-(4-methyl-1,3-thiazol-2-yl)benzimidazol-5-yl]morpholine]", "IC50": 8}
{"smiles": "Cc1csc(-c2cc(N3CCOCC3)cc3c2nc(C2CC2)n3-c2ccnc3c(Cl)cccc23)n1", "note": "[Example 234, 4-[3-(8-chloroquinolin-4-yl)-2-cyclopropyl-7-(4-methyl-1,3-thiazol-2-yl)benzimidazol-5-yl]morpholine]", "IC50": 100}
{"smiles": "CCCc1nc2c(-c3nc(C)cs3)cc(N3CCOCC3)cc2n1-c1ccnc2c(F)ccc(F)c12", "note": "[Example 235, 4-[3-(5,8-difluoroquinolin-4-yl)-7-(4-methyl-1,3-thiazol-2-yl)-2-propylbenzimidazol-5-yl]morpholine]", "IC50": 17}
{"smiles": "Fc1ccc(F)c2c(-n3cnc4c(-c5ncco5)cc(N5CCOCC5)cc43)ccnc12", "note": "[Example 236, 4-[3-(5,8-difluoroquinolin-4-yl)-7-(1,3-oxazol-2-yl)benzimidazol-5-yl]morpholine]", "IC50": 5}
{"smiles": "Cc1csc(-c2cc(N3CCOCC3)cc3c2nc(C2CC2)n3-c2ccnc3c(F)ccc(F)c23)n1", "note": "[Example 237, 4-[2-cyclopropyl-3-(5,8-difluoroquinolin-4-yl)-7-(4-methyl-1,3-thiazol-2-yl)benzimidazol-5-yl]morpholine]", "IC50": 50}
{"smiles": "Cc1csc(-c2cc(N3CCOCC3)cc3c2nc(C)n3-c2ccnc3c(Cl)ccc(F)c23)n1", "note": "[Example 238, 4-[3-(8-chloro-5-fluoroquinolin-4-yl)-2-methyl-7-(4-methyl-1,3-thiazol-2-yl)benzimidazol-5-yl]morpholine]", "IC50": 4}
{"smiles": "CCCc1nc2c(-c3nccs3)cc(N3CCOCC3)cc2n1-c1ccnc2c(F)ccc(F)c12", "note": "[Example 239, 4-[3-(5,8-difluoroquinolin-4-yl)-2-propyl-7-(1,3-thiazol-2-yl)benzimidazol-5-yl]morpholine]", "IC50": 12}
{"smiles": "Cc1nc2c(-c3nccs3)cc(N3CCOCC3)cc2n1-c1ccnc2c(Cl)ccc(F)c12", "note": "[Example 240, 4-[3-(8-chloro-5-fluoroquinolin-4-yl)-2-methyl-7-(1,3-thiazol-2-yl)benzimidazol-5-yl]morpholine]", "IC50": 2}
{"smiles": "Fc1ccc(F)c2c(-n3c(C4CC4)nc4c(-c5nccs5)cc(N5CCOCC5)cc43)ccnc12", "note": "[Example 241, 4-[2-cyclopropyl-3-(5,8-difluoroquinolin-4-yl)-7-(1,3-thiazol-2-yl)benzimidazol-5-yl]morpholine]", "IC50": 27}
{"smiles": "Fc1ccc(Cl)c2nccc(-n3c(C4CC4)nc4c(-c5ncco5)cc(N5CCOCC5)cc43)c12", "note": "[Example 242, 4-[3-(8-chloro-5-fluoroquinolin-4-yl)-2-cyclopropyl-7-(1,3-oxazol-2-yl)benzimidazol-5-yl]morpholine]", "IC50": 6}
{"smiles": "Cc1csc(-c2cc(N3CCOCC3)cc3c2nc(C2CC2)n3-c2ccnc3c(Cl)ccc(F)c23)n1", "note": "[Example 243, 4-[3-(8-chloro-5-fluoroquinolin-4-yl)-2-cyclopropyl-7-(4-methyl-1,3-thiazol-2-yl)benzimidazol-5-yl]morpholine]", "IC50": 26}
{"smiles": "Cc1nc2c(-c3nccs3)cc(N3CCOCC3)cc2n1-c1ccnc2c(Cl)cccc12", "note": "[Example 244, 4-[3-(8-chloroquinolin-4-yl)-2-methyl-7-(1,3-thiazol-2-yl)benzimidazol-5-yl]morpholine]", "IC50": 9}
{"smiles": "CCc1nc2c(-c3cnc(C)[nH]3)cc(N3CCOCC3)cc2n1-c1ccnc2c(Cl)cccc12", "note": "[Example 245, 4-[3-(8-chloroquinolin-4-yl)-2-ethyl-7-(2-methyl-1H-imidazol-5-yl)benzimidazol-5-yl]morpholine]", "IC50": 21}
{"smiles": "Cc1nc2c(-c3cnccn3)cc(N3CCOCC3)cc2n1-c1ccnc2c(Cl)cccc12", "note": "[Example 246, 4-[3-(8-chloroquinolin-4-yl)-2-methyl-7-pyrazin-2-ylbenzimidazol-5-yl]morpholine]", "IC50": 1100}
{"smiles": "Fc1ccc(Cl)c2nccc(-n3c(C4CC4)nc4c(-c5nccs5)cc(N5CCOCC5)cc43)c12", "note": "[Example 247, 4-(1-(8-chloro-5-fluoroquinolin-4-yl)-2-cyclopropyl-4-(thiazol-2-yl)-1H-benzo[d]imidazol-6-yl)morpholine]", "IC50": 12}
{"smiles": "Cc1nc2c(-c3cnc(Cl)[nH]3)cc(N3CCOCC3)cc2n1-c1ccnc2c(F)cccc12", "note": "[Example 260, 4-(4-(2-chloro-1H-imidazol-5-yl)-1-(8-fluoroquinolin-4-yl)-2-methyl-1H-benzo[d]imidazol-6-yl)morpholine]", "IC50": 22}
{"smiles": "Cc1nc2c(-c3ccc[nH]3)cc(N3CCOCC3)cc2n1-c1ccnc2c(Cl)cccc12", "note": "[Example 261, 4-[3-(8-chloroquinolin-4-yl)-2-methyl-7-(1H-pyrrol-2-yl)benzimidazol-5-yl]morpholine]", "IC50": 24}
{"smiles": "Cc1nc2c(-c3cc[nH]n3)cc(N3CCOCC3)cc2n1-c1ccnc2c(Cl)cccc12", "note": "[Example 262, 4-[3-(8-chloroquinolin-4-yl)-2-methyl-7-(1H-pyrazol-3-yl)benzimidazol-5-yl]morpholine]", "IC50": 27}
{"smiles": "Cc1nc2c(-c3cc[nH]c3)cc(N3CCOCC3)cc2n1-c1ccnc2c(Cl)cccc12", "note": "[Example 263, 4-[3-(8-chloroquinolin-4-yl)-2-methyl-7-(1H-pyrrol-3-yl)benzimidazol-5-yl]morpholine]", "IC50": 13}
{"smiles": "Cc1nc2c(-c3ccn(S(C)(=O)=O)c3)cc(N3CCOCC3)cc2n1-c1ccnc2c(Cl)cccc12", "note": "[Example 264, 4-[3-(8-chloroquinolin-4-yl)-2-methyl-7-(1-methylsulfonylpyrrol-3-yl)benzimidazol-5-yl]morpholine]", "IC50": 770}
{"smiles": "Cc1nc2c(-c3cscn3)cc(N3CCOCC3)cc2n1-c1ccnc2ccccc12", "note": "[Example 265, 4-[2-methyl-3-quinolin-4-yl-7-(1,3-thiazol-4-yl)benzimidazol-5-yl]morpholine]", "IC50": 460}
{"smiles": "Cc1nc2c(-c3cnc[nH]3)cc(N3CCOCC3)cc2n1-c1ccnc2c(Cl)cccc12", "note": "[Example 266, 4-[3-(8-chloroquinolin-4-yl)-7-(1H-imidazol-5-yl)-2-methylbenzimidazol-5-yl]morpholine]", "IC50": 11}
{"smiles": "Cc1nc2c(-c3ccc(Cl)s3)cc(N3CCOCC3)cc2n1-c1ccnc2c(Cl)cccc12", "note": "[Example 267, 4-[3-(8-chloroquinolin-4-yl)-7-(5-chlorothiophen-2-yl)-2-methylbenzimidazol-5-yl]morpholine]", "IC50": 2100}
